This is an account of results in patent US11945819B1, “Dimethyl 7-bromo-1-(4-substituted benzoyl)pyrrolo[1,2-a]quinoline-2,3-dicarboxylates as anti-inflammatory agents” (KING FAISAL UNIVERSITY, priority 2023, dated 2024).

One data set has as its target bovine serum albumin (Bos taurus, UniProt P02769). Description: In vitro anti-inflammatory activity by inhibition of bovine serum albumin denaturation. The format is biochemical. The following applies: for % Inhibition at 10 μg: inhibition of heat-induced albumin denaturation (60° C., 10 min), turbidity, average of triplicate; for inhibition rate: at 10 μg, bovine serum albumin denaturation method. The method, then:
Accordingly, in an embodiment of the present subject matter, the dimethyl 7-bromo-1-(4- substituted benzoyl)pyrrolo[1,2-α]quinoline-2,3-dicarboxylates derivatives, or the dimethyl 7-bromo-1-(4-substituted benzoyl)pyrrolo[1,2-α]quinoline-2,3-dicarboxylates, as described herein were screened for their in vitro anti-inflammatory activity by inhibiting the bovine serum albumin denaturation method. The test compound is dissolved in a minimum amount of dimethyl sulphoxide (DMSO) and diluted with phosphate buffer. The final concentration of DMF in all solutions is less than 2.5%. Test solutions containing different concentrations of the drug is mixed with albumin solution in phosphate buffer and incubated at about 27-37° C.±10° C. for about at least 15 min. Denaturation is induced by keeping the reaction mixture at about 60° C.±10° C. in a water bath for at least about 10 min. After cooling, the turbidity is measured at about 210-660 nm (Shimadzu Spectrometer). Percentage inhibition of denaturation is calculated from a control where no drug was added. The percentage of inhibition is calculated from the following formula. The standard solution is also prepared as similar to that of the test solution. Ibuprofen can be used as a standard.
The newly synthesized compounds were screened for their in-vitro anti-inflammatory activity by inhibiting the bovine serum albumin denaturation method. The test compounds were dissolved in a minimum dimethyl sulphoxide (DMSO) and diluted with phosphate buffer (0.2M, pH 7.4). The final concentration of DMF in all solutions was less than 2.5%. Test solution (1 mL) containing different concentrations of the drug was mixed with 1 mL of 1 mm albumin solution in phosphate buffer and incubated at 27-37° C.±10° C. for 15 min. Denaturation was induced by keeping the reaction mixture at 60° C.±10° C. in a water bath for 10 min. After cooling, the turbidity was measured at 210-660 nm (Shimadzu Spectrometer). Percentage inhibition of denaturation was calculated from control where no drug was added. Each experiment was done in triplicate, and the average was taken. The percentage of inhibition is calculated from the following formula. The standard solution was also prepared as similar to that of the test solution. Ibuprofen was used as a standard.
The inhibition was calculated using the following equation: % Inhibition=100 (1−Vt/Vc) where, Vt=Drug absorbance of triplicate average Vc=Control absorbance of triplicate average

Broadly, the % Inhibition is the change of the read-out against control, counted positive when it falls. In general, melting point refers to the temperature, or range, at which the solid turns liquid.

Chain of bovine serum albumin (P02769 25-607): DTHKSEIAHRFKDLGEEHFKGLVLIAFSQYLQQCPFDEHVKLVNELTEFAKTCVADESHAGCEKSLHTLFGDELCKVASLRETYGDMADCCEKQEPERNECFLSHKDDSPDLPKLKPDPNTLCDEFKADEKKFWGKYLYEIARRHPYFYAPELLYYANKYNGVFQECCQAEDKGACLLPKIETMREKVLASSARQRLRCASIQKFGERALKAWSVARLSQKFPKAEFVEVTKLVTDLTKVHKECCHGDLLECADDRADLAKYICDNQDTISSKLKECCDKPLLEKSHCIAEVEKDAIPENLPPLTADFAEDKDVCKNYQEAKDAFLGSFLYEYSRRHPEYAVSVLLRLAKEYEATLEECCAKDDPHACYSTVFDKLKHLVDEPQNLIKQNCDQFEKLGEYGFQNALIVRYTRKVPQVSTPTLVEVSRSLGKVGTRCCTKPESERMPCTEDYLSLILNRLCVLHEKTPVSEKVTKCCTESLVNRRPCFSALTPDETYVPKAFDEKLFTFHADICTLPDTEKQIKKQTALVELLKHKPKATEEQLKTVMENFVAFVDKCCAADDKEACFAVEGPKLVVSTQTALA

With `COC(=O)c1c(C(=O)OC)c2ccc3cc(Br)ccc3n2c1C(=O)c1ccc(F)cc1` [Compound 3a, dimethyl 7-bromo-1-(4-fluorobenzoyl)pyrrolo[1,2-α]quinoline-2,3-dicarboxylate], the melting point was 169 to 171 °C. Also, on bovine serum albumin, the “% Inhibition at 10 μg” value is recorded as 49.75% and the inhibition rate came out at 49.75%.

Compound `COC(=O)c1c(C(=O)OC)c2ccc3cc(Br)ccc3n2c1C(=O)c1ccc(Cl)cc1` [Compound 3b, dimethyl 7-bromo-1-(4-chlorobenzoyl)pyrrolo[1,2-α]quinoline-2,3-dicarboxylate] showed a melting point of 210 to 212 °C. In addition, on bovine serum albumin, the “% Inhibition at 10 μg” value is 42.52% and the inhibition rate was 42.52%.

For the compound `COC(=O)c1c(C(=O)OC)c2ccc3cc(Br)ccc3n2c1C(=O)c1ccc(Br)cc1` [Compound 3c, dimethyl 7-bromo-1-(4-bromobenzoyl)pyrrolo[1,2-α]quinoline-2,3-dicarboxylate], the melting point lay in the range of 170 to 172 °C. In addition, at bovine serum albumin, the “% Inhibition at 10 μg” value is 54.35% and the inhibition rate is on record as 54.35%.
